Experimental findings from patent US6831199B1, “Pyrimidine compounds and derivatives thereof” (G. D. Searle & Co., priority 1995, dated 2004) are described below.

Counter-ions that a name gives are not always drawn. A value given as a limit tells only on which side of the number the result lay.

The target in test [1] is T1, Human fibrinogen receptor (αIIbβ3) (Homo sapiens, UniProt P05106+P08514).
T1 construct: Human fibrinogen receptor (αIIbβ3) was purified from outdated platelets; from tissue; host or cells: outdated human platelets
In words: Purified IIb/IIIa receptor assay (solid phase receptor assay, competition with biotinylated vitronectin). The format is binding. The settings on record: read-out: IIb/IIIa IC50. An outline of the steps: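 Purified platelet αIIbβ3 coated overnight at 4 °C in TBS with 1.0 mM Ca/Mg/Mn, pH 7.4, then BSA-blocked. Compounds (top 1.0×10^−4 M) competed with 1 nM biotinylated vitronectin for 2 h at room temperature. Bound label detected by HRP anti-biotin, A450; values normalized to no-competitor controls, four-parameter fit.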

The target in test [2] is T2, Human vitronectin receptor (αvβ3) (Homo sapiens, UniProt P05106+P06756).
T2 construct: Human vitronectin receptor (αvβ3) was purified from human placenta; from tissue; host or cells: human placenta
The experiment in a line: Vitronectin adhesion assay (solid phase receptor assay, competition with biotinylated vitronectin). Format: binding. Conditions: read-out: AvB3 IC50. In a few lines:
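Purified human αvβ3 coated overnight at 4 °C in TBS with 1.0 mM Ca++, Mg++, Mn++, pH 7.4; compounds (top final 1.0×10^−4 M) competed with 1 nM biotinylated vitronectin for 2 h at room temperature. Bound ligand detected by HRP anti-biotin/OPD at A450; values normalized to no-competitor controls, four-parameter curve fit.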

Consider `N=C(N)Nc1cccc(C(=O)NCC(=O)NC(CC(=O)O)C(F)(F)F)c1` (stereo not shown) [Example 261, 3-[[2-[[[3-[(aminoiminomethyl)amino]phenyl]carbonyl]aminoacetyl]amino]-4,4,4-trifluorobutanoic acid, trifluoroacetate salt], for which the figures for the IC50 in test [1] and in test [2] were 4710 nM and 6.47 nM, respectively.

On to `N=C(N)Nc1cccc(C(=O)NCC(=O)NC(CC(=O)O)c2cc(N)ccc2O)c1` (racemic) [Example 234, (±)5-amino-β-[[2-[[[3-[(aminoiminomethyl)amino]phenyl]carbonyl]amino]acetyl]amino]-2-hydroxybenzenepropanoic acid, bis(trifluoroacetate)salt, monohydrate], for which the IC50 in test [1] came to 830 nM; in test [2], 89.3 nM.

For the compound `N=C(N)Nc1cccc(C(=O)NC2(C(=O)NC(CC(=O)O)c3cccnc3)CC2)c1` (stereo not drawn) [Example 19, β-[[1-[[[3-[(aminoiminomethyl)amino]phenyl]carbonyl]amino]cycloprop-1-yl]carbonyl]amino]pyridine-3-propanoic acid, bis(trifluoroacetate)salt], the IC50 worked out at 72000 nM in test [1] and 303 nM in test [2].

As to `CCOC(=O)CC(NC(=O)CNC(=O)c1cccc(NC2=NCCS2)c1)c1cccnc1` (stereo not drawn) [Example 100, ethyl β-[[2-[[[3-[(4,5-dihydrothiazol-2-yl)amino]phenyl]carbonyl]amino]acetyl]amino]pyridine-3-propanoate, trifluoroacetate salt], the IC50 is greater than 100000 nM in test [1] and 8560 nM in test [2].

For the compound `N=C(N)Nc1cccc(C(=O)NCC(=O)NC(CC(=O)O)c2cc(F)cc(Br)c2)c1` (racemic) [Example 209, (±)β-[[2-[[[3-[(aminoiminomethyl)amino]phenyl]carbonyl]amino]acetyl]amino]-3-bromo-5-fluorobenzenepropanoic acid, trifluoroacetate salt], the IC50 in test [1] stood at 140 nM; in test [2] it was 0.83 nM.

Consider `N=C(N)Nc1cccc(C(=O)NCC(=O)NC(CC(=O)O)c2cc(Cl)c(O)c(Cl)c2)c1` (stereo not drawn) [Example 277, β-[[2-[[[3-[(aminoiminomethyl)amino]phenyl]carbonyl]amino]acetyl]amino]-3,5-dichloro-4-hydroxybenzenepropanoic acid, trifluoroacetate salt], for which the IC50 came to 198 nM in test [1] and 1.41 nM in test [2].

As for `O=C(O)CC(NC(=O)CNC(=O)c1cccc(NC2=NCCCC2)c1)c1cc(Cl)cc(Cl)c1` (racemic) [Example 205, (±)3,5-dichloro-β-[[2-[[[3-[(2,3,4,5-tetrahydropyridin-6-yl)amino]phenyl]carbonyl]amino]acetyl]amino]benzenepropanoic acid, trifluoroacetate salt], the values for the IC50 in test [1] and in test [2] were 1240 nM and 1.68 nM, respectively.

Regarding `C#C[C@H](CC(=O)O)NC(=O)CNC(=O)c1cccc(N/C(=N\C#N)NCc2ccc(S(N)(=O)=O)cc2)c1` [Example 158, 3S-[[2-[[[3-[[[[(4-(aminosulfonyl)phenylmethyl]amino](cyanoimino)methyl]amino]phenyl]carbonyl]amino]acetyl]amino]-4-pentynoic acid, trifluoroacetate salt, monohydrate], the IC50 in test [1] was determined as 547 nM; in test [2] it was 10.1 nM.

Regarding `N=C(N)Nc1cccc(C(=O)NCC(=O)NC(CC(=O)O)c2cncnc2)c1` (stereo not drawn) [Example 243, β-[[2-[[[3-[(aminoiminomethyl)amino]phenyl]carbonyl]amino]acetyl]amino][pyrimidine-5-propanoic acid, trifluoroacetate salt], the IC50 in test [1] worked out at 23.6 nM; in test [2] it was 0.35 nM.

On to `CSc1cccc(C(CC(=O)O)NC(=O)CNC(=O)c2cccc(NC(=N)N)c2)c1` (racemic) [Example 245, (±)β-[[2-[[[3-[(aminoiminomethyl)amino]phenyl]carbonyl]amino]acetyl]amino]-3-(methylthio)benzenepropanoic acid, trifluoroacetate salt], for which the IC50 in test [1] stood at 134 nM; in test [2] it was 0.96 nM.

Consider `COc1cc(OC)cc(C(CC(=O)O)NC(=O)CNC(=O)c2cccc(NC(=N)N)c2)c1` (racemic) [Example 195, (±)β-[[2-[[[3-[(aminoiminomethyl)amino]phenyl]carbonyl]amino]acetyl]amino]-3,5-dimethoxybenzenepropanoic acid, trifluoroacetate salt], for which the IC50 in test [1] was 98 nM; in test [2], 1.09 nM.

In the case of `N=C(N)Nc1cccc(C(=O)NCC(=O)NC(CC(=O)O)c2ccn[nH]2)c1` (stereo not drawn) [Example 252, β-[[2-[[[3-[(aminoiminomethyl)amino]phenyl]carbonyl]amino]acetyl]amino]-1H-pyrazole-3-propanoic acid, trifluoroacetate salt], the values for the IC50 in test [1] and in test [2] were 213 nM and 1.52 nM, respectively.

In the case of `C#C[C@H](CC(=O)O)NC(=O)CNC(=O)c1ccc(Cl)c(NC(=N)N)c1` [Example 173, 3S-[[2-[[[3-[(aminoiminomethyl)amino]-4-chlorophenyl]carbonyl]amino]acetyl]amino]-4-pentynoic acid, trifluoroacetate salt], the figures for the IC50 in test [1] and in test [2] were 17.4 nM and 0.5 nM, respectively.

For `O=C(O)CC(NC(=O)CNC(=O)c1cccc(NC2=NCCCN2)c1)c1cc(Cl)cc(Br)c1O` (racemic) [Example 236, (±)3-bromo-5-chloro-2-hydroxy-β-[[2-[[[3-[(1,4,5,6-tetrahydropyrimidin-2-yl)amino]phenyl]carbonyl]amino]acetyl]amino]benzenepropanoic acid, trifluoroacetate salt, monohydrate], the IC50 in test [1] worked out at 1250 nM; in test [2], 0.53 nM.

In the case of `COc1ccc(Br)cc1C(CC(=O)O)NC(=O)CNC(=O)c1cccc(NC(=N)N)c1` (stereo not drawn) [Example 257, β-[[2-[[[3-[(aminoiminomethyl)amino]phenyl]carbonyl]amino]acetyl]amino]-5-bromo-2-methoxybenzenepropanoic acid, trifluoroacetate salt], the IC50 in test [1] was 4660 nM; in test [2], 49.2 nM.

`CC1(C)CN=C(Nc2cccc(C(=O)NCC(=O)NC(CC(=O)O)c3cc(Cl)cc(Cl)c3)c2)NC1` (racemic) [Example 367, (±)3,5-dichloro-β-[[2-[[[3-[(1,4,5,6-tetrahydro-5,5-dimethylpyrimidin-2-yl)amino]phenyl]carbonyl]amino]acetyl]amino]benzenepropanoic acid, trifluoroacetate salt]: the IC50 came out at 1540 nM in test [1] and 0.35 nM in test [2].

As for `N=C(N)Nc1cc(NC(=N)N)cc(C(=O)NCC(=O)NC(CC(=O)O)c2cc(Cl)cc(Cl)c2)c1` (stereo not drawn) [Example 291, β-[[2-[[[3,5-bis[(aminoiminomethyl)amino]phenyl]carbonyl)amino]acetyl]amino]-3,5-dichlorobenzenepropanoic acid, bis(trifluoroacetate)salt], the IC50 in test [1] was determined as 37.4 nM; in test [2], 1.24 nM.

In the case of `C/N=C(\NCc1ccncc1)Nc1cccc(C(=O)NCC(=O)NC(CC(=O)O)c2ccc(F)cc2)c1` (racemic) [Example 299, (±)4-fluoro-β-[[2-[[[3-[[[(4-pyridinylmethyl)amino](methylimino)methyl]amino]phenyl]carbonyl]amino]acetyl]amino]benzenepropanoic acid, trifluoroacetate salt], the results for the IC50 in test [1] and in test [2] were 927 nM and 109 nM, respectively.

Turning to `O=C(O)CC(NC(=O)CNC(=O)c1cccc(NC(=O)NCc2cc(Cl)cc(Cl)c2)c1)c1cccnc1` (stereo not drawn) [Example 273, β-[[2-[[[3-[[[[(3,5-dichlorophenyl)methyl]amino]carbonylamino]phenyl]carbonyl]amino]acetyl]amino]pyridine-3-propanoic acid, trifluoroacetate salt], the IC50 in test [1] amounted to 4160 nM; in test [2], 12.9 nM.

`CCOC(=O)CC(NC(=O)CNC(=O)c1cccc(NC(=O)NCc2ccccc2)c1)c1ccc2c(c1)OCO2` (stereo not drawn) [Example 121, ethyl β-[[2-[[[3-[[[(phenylmethyl)amino]carbonyl]amino]phenyl]carbonyl]amino]acetyl]amino]-1,3-benzodioxole-5-propanoate]: the IC50 in test [1] was greater than 100000 nM; in test [2], 2840 nM.

Take `N=C(N)Nc1cccc(C(=O)NCC(=O)NC(CC(=O)O)c2cccc(OCC(=O)O)c2)c1` (stereo not drawn) [Example 260, β-[[2-[[[3-[(aminoiminomethyl)amino]phenyl]carbonyl]amino]acetyl]amino]-3-(carboxymethoxy)benzenepropanoic acid, trifluoroacetate salt]: the IC50 in test [1] came out at 65.3 nM; in test [2], 0.74 nM.

For the compound `N=C(N)Nc1cccc(C(=O)NCC(=O)NC(CC(=O)O)c2cc(Br)cc(Cl)c2O)c1` (stereo not drawn) [Example 265, β-[[2-[[[3-[(aminoiminomethyl)amino]phenyl]carbonyl]amino]acetyl]amino]-5-bromo-3-chloro-2-hydroxybenzenepropanoic acid, trifluoroacetate salt], the IC50 came out at 706 nM in test [1] and 6.19 nM in test [2].

Consider `O=C(O)CC(NC(=O)CNC(=O)c1cccc(NC2=NCCCS2)c1)c1cccnc1` (stereo not drawn) [Example 278, β-[[2-[[[3-[(5,6-dihydro-4H-thiazin-2-yl)amino]phenyl]carbonyl]amino]acetyl]amino]pyridine-3-propanoic acid, bis(trifluoroacetate)salt], for which the IC50 in test [1] turned out to be 150 nM; in test [2], 0.45 nM.
